Measurements published in ChEMBL document CHEMBL4804284.

Assays:
Parameters in all cases: scale not given: the % may be the effect or the level left
[1] = target: Mitogen-activated protein kinase kinase kinase kinase 5 (Homo sapiens) (UniProt Q9Y4K4); assay: Inhibition of DNA-tagged human MAP4K5 assessed as percent of control at 50000 nM by qPCR analysis relative to control
[2] = target: Mitogen-activated protein kinase kinase kinase 20 (Homo sapiens) (UniProt Q9NYL2); assay: Inhibition of DNA-tagged human ZAK assessed as percent of control at 50000 nM by qPCR analysis relative to control
[3] = target: Serine/threonine-protein kinase PAK 5 (Homo sapiens) (UniProt Q9P286); assay: Inhibition of DNA-tagged human PAK7 assessed as percent of control at 50000 nM by qPCR analysis relative to control
[4] = test system: Epidermal growth factor receptor (Homo sapiens), P00533 [UNDEFINED MUTATION]; assay: Inhibition of DNA-tagged human EGFR E746-A750del mutant assessed as percent of control at 50000 nM by qPCR analysis relative to control
[5] = target: Mitogen-activated protein kinase kinase kinase 19 (Homo sapiens) (UniProt Q56UN5); assay: Inhibition of DNA-tagged human YSK4 assessed as percent of control at 50000 nM by qPCR analysis relative to control
[6] = target: Bone morphogenetic protein receptor type-1B (Homo sapiens) (UniProt O00238); assay: Inhibition of DNA-tagged human BMPR1B assessed as percent of control at 50000 nM by qPCR analysis relative to control
[7] = test system: Tyrosine-protein kinase ABL1 (Homo sapiens), P00519 [UNDEFINED MUTATION]; assay: Inhibition of DNA-tagged phosphorylated human ABL1 […] mutant assessed as percent of control at 50000 nM by qPCR analysis relative to control
[8] = target: Tyrosine-protein kinase Fes/Fps (Homo sapiens) (UniProt P07332); assay: Inhibition of DNA-tagged human FES assessed as percent of control at 50000 nM by qPCR analysis relative to control
Tyrosine-protein kinase Fes/Fps (Homo sapiens), sequence (P07332 whole entry, canonical isoform): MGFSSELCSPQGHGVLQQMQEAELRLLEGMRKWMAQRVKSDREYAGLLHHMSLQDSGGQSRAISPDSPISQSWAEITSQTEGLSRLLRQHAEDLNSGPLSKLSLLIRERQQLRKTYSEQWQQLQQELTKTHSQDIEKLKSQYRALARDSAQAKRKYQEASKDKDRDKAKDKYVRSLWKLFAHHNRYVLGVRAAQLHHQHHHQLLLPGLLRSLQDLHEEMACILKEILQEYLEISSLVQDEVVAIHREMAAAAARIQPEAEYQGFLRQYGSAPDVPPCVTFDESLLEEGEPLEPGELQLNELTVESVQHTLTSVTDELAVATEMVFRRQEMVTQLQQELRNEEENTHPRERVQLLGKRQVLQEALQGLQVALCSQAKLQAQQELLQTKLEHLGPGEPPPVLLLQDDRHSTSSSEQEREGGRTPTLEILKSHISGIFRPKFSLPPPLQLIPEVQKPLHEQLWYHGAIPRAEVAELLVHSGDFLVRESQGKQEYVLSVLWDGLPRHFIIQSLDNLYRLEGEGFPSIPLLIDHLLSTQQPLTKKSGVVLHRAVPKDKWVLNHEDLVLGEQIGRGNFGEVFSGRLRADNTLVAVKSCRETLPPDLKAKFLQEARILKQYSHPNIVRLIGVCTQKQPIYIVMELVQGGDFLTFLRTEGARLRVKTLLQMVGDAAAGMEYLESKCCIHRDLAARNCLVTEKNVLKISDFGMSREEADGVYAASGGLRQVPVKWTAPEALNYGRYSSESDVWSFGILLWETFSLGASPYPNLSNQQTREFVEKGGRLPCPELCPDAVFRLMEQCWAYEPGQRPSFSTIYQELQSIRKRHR

[9] = target: Phosphorylase b kinase gamma catalytic chain, liver/testis isoform (Homo sapiens) (UniProt P15735); assay: Inhibition of DNA-tagged human PHKG2 assessed as percent of control at 50000 nM by qPCR analysis relative to control
Phosphorylase b kinase gamma catalytic chain, liver/testis isoform (Homo sapiens), sequence (P15735 whole entry, canonical isoform): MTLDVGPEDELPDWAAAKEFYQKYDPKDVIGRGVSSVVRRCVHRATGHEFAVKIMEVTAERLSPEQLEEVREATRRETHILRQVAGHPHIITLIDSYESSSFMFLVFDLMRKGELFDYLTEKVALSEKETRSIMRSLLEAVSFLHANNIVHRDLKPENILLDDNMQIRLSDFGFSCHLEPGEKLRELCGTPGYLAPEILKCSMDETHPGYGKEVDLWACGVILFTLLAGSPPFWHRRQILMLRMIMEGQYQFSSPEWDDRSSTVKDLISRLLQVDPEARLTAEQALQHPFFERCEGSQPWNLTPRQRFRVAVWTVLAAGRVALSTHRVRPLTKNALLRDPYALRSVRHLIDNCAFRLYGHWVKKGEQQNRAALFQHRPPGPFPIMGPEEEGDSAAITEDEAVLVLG

[10] = target: Death-associated protein kinase 1 (Homo sapiens) (UniProt P53355); assay: Inhibition of DNA-tagged human DAPK1 assessed as percent of control at 50000 nM by qPCR analysis relative to control
[11] = target: Aurora kinase C (Homo sapiens) (UniProt Q9UQB9); assay: Inhibition of DNA-tagged human AURKC assessed as percent of control at 50000 nM by qPCR analysis relative to control
[12] = target: Ephrin type-A receptor 8 (Homo sapiens) (UniProt P29322); assay: Inhibition of DNA-tagged human EPHA8 assessed as percent of control at 50000 nM by qPCR analysis relative to control
[13] = target: Discoidin domain-containing receptor 2 (Homo sapiens) (UniProt Q16832); assay: Inhibition of DNA-tagged human DDR2 assessed as percent of control at 50000 nM by qPCR analysis relative to control
[14] = target: Mitogen-activated protein kinase kinase kinase 6 (Homo sapiens) (UniProt O95382); assay: Inhibition of DNA-tagged human ASK2 assessed as percent of control at 50000 nM by qPCR analysis relative to control
[15] = target: Casein kinase II subunit alpha (Homo sapiens) (UniProt P68400); assay: Inhibition of DNA-tagged human CSNK2A1 assessed as percent of control at 50000 nM by qPCR analysis relative to control
[16] = target: Cyclin-dependent kinase 17 (Homo sapiens) (UniProt Q00537); assay: Inhibition of DNA-tagged human PCTK2 assessed as percent of control at 50000 nM by qPCR analysis relative to control
[17] = test system: Mast/stem cell growth factor receptor Kit (Homo sapiens), P10721 [V559D,T670I]; assay: Inhibition of DNA-tagged human KIT V559D/T670I double mutant assessed as percent of control at 50000 nM by qPCR analysis relative to control
[18] = target: Serine/threonine-protein kinase 17A (Homo sapiens) (UniProt Q9UEE5); assay: Inhibition of DNA-tagged human DRAK1 assessed as percent of control at 50000 nM by qPCR analysis relative to control
Serine/threonine-protein kinase 17A (Homo sapiens), sequence (Q9UEE5 whole entry): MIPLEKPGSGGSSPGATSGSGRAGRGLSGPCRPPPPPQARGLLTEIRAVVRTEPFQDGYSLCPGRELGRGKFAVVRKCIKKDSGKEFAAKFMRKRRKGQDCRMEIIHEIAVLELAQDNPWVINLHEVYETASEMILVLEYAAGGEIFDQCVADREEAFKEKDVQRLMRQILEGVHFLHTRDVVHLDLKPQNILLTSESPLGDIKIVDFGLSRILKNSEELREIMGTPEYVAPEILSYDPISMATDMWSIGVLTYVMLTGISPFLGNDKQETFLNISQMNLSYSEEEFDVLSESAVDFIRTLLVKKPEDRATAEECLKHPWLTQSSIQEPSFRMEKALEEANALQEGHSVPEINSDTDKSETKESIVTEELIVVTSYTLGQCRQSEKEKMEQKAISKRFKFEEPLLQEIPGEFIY

[19] = target: Glycogen synthase kinase-3 alpha (Homo sapiens) (UniProt P49840); assay: Inhibition of DNA-tagged human GSK3A assessed as percent of control at 50000 nM by qPCR analysis relative to control
[20] = target: Serine/threonine-protein kinase 33 (Homo sapiens) (UniProt Q9BYT3); assay: Inhibition of DNA-tagged human STK33 assessed as percent of control at 50000 nM by qPCR analysis relative to control
Serine/threonine-protein kinase 33 (Homo sapiens), sequence (Q9BYT3 whole entry, looked up): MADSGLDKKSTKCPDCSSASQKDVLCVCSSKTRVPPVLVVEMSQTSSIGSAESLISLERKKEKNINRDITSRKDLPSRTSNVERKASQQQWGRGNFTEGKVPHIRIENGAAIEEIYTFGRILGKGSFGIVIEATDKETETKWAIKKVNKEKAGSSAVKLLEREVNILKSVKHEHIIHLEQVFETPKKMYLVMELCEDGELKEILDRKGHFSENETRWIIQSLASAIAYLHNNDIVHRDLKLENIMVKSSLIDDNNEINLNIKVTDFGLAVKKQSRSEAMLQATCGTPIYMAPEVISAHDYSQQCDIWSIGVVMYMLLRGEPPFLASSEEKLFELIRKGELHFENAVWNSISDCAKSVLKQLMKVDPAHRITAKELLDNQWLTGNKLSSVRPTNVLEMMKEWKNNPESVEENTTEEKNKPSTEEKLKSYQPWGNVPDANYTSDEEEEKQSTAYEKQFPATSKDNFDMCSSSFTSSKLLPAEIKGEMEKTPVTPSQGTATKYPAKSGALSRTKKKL

[21] = target: Tyrosine-protein kinase ITK/TSK (Homo sapiens) (UniProt Q08881); assay: Inhibition of DNA-tagged human ITK assessed as percent of control at 50000 nM by qPCR analysis relative to control
[22] = target: Cyclin-dependent kinase 11B (Homo sapiens) (UniProt P21127); assay: Inhibition of DNA-tagged human CDC2L1 assessed as percent of control at 50000 nM by qPCR analysis relative to control
[23] = test system: Mast/stem cell growth factor receptor Kit (Homo sapiens), P10721 [V559D,V654A]; assay: Inhibition of DNA-tagged human KIT V559D/V654A double mutant assessed as percent of control at 50000 nM by qPCR analysis relative to control
[24] = target: Tyrosine-protein kinase JAK2 (Homo sapiens) (UniProt O60674); assay: Inhibition of DNA-tagged human JAK2 JH1 catalytic domain assessed as percent of control at 50000 nM by qPCR analysis relative to control
Tyrosine-protein kinase JAK2 (Homo sapiens), sequence (O60674 whole entry, the tested form may be a part): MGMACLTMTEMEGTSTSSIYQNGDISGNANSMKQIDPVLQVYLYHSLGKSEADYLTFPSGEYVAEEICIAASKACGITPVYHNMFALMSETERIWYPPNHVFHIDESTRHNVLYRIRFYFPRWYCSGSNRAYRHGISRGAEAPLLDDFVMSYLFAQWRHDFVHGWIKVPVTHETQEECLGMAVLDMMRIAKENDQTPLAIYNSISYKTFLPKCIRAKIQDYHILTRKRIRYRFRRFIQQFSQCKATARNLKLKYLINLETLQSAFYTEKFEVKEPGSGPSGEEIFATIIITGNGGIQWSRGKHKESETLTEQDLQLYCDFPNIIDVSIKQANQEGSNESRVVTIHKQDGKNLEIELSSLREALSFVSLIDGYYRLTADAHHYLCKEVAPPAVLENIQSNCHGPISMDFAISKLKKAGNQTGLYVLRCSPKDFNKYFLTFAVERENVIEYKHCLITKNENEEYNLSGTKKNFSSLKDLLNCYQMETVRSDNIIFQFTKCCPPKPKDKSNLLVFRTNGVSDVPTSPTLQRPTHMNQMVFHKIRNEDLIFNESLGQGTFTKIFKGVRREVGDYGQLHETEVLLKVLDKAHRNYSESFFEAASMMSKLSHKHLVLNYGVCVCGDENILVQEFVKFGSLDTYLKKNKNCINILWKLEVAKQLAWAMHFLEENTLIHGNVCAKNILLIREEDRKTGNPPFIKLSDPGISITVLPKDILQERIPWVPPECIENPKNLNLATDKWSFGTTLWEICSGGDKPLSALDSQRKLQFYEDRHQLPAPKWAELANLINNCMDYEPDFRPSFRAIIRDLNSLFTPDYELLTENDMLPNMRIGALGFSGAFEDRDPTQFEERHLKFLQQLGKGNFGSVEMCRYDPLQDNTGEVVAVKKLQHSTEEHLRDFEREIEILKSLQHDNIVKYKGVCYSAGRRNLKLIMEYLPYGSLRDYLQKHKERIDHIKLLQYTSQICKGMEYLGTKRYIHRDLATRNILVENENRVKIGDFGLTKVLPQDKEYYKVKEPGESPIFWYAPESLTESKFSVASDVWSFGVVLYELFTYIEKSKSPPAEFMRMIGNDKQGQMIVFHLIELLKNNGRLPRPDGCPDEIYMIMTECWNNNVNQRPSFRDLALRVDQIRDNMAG

[25] = target: Serine/threonine-protein kinase SIK2 (Homo sapiens) (UniProt Q9H0K1); assay: Inhibition of DNA-tagged human SIK2 assessed as percent of control at 50000 nM by qPCR analysis relative to control
[26] = target: Receptor-interacting serine/threonine-protein kinase 4 (Homo sapiens) (UniProt P57078); assay: Inhibition of DNA-tagged human RIPK4 assessed as percent of control at 50000 nM by qPCR analysis relative to control
Receptor-interacting serine/threonine-protein kinase 4 (Homo sapiens), sequence (P57078 whole entry): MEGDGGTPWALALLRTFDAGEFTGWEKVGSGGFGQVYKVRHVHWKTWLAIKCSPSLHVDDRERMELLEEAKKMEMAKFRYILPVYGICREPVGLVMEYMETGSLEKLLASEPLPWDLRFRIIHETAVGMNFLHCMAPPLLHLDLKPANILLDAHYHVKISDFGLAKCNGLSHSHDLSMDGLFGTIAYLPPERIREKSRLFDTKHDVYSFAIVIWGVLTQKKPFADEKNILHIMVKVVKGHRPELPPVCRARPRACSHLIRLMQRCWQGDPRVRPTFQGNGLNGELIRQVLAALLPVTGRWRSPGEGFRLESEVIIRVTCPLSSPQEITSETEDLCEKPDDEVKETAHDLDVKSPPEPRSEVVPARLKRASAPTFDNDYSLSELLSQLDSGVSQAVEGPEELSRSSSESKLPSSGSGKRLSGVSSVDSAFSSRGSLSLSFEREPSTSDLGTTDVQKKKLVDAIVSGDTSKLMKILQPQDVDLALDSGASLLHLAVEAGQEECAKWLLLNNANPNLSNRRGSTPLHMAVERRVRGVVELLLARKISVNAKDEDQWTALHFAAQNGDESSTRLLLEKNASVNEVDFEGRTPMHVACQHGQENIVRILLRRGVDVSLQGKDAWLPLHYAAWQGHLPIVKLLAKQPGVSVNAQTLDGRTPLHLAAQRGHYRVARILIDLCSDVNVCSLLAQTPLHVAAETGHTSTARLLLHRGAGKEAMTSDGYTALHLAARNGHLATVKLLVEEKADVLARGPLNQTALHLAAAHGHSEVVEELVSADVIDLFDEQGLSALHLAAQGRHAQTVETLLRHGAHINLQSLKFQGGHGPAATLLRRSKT

[27] = target: Ephrin type-A receptor 3 (Homo sapiens) (UniProt P29320); assay: Inhibition of DNA-tagged human EPHA3 assessed as percent of control at 50000 nM by qPCR analysis relative to control
[28] = target: LIM domain kinase 1 (Homo sapiens) (UniProt P53667); assay: Inhibition of DNA-tagged human LIMK1 assessed as percent of control at 50000 nM by qPCR analysis relative to control
LIM domain kinase 1 (Homo sapiens), sequence (P53667 whole entry, looked up, the tested form may be a part): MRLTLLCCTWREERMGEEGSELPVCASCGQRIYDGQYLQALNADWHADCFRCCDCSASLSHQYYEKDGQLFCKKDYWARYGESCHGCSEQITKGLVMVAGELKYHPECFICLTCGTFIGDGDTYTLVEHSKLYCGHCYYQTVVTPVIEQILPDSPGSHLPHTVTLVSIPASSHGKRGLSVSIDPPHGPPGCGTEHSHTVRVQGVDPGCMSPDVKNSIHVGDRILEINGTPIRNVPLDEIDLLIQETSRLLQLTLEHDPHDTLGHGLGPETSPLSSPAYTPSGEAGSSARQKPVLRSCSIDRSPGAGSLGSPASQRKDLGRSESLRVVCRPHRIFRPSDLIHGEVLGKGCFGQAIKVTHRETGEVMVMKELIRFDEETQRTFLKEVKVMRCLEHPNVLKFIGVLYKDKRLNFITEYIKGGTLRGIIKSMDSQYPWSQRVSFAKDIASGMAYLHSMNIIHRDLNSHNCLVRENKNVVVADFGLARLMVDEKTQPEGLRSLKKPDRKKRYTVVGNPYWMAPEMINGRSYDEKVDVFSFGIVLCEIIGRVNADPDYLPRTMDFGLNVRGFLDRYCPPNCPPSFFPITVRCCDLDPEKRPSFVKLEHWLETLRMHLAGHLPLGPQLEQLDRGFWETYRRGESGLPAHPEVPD

[29] = target: Serine/threonine-protein kinase MRCK gamma (Homo sapiens) (UniProt Q6DT37); assay: Inhibition of DNA-tagged human DMPK2 assessed as percent of control at 50000 nM by qPCR analysis relative to control

How did the Activity [1] turn out when `CN1C(=O)/C(=C2/C(=O)Nc3ccccc32)c2ccccc21` was run?
The Activity was 100%.

And the Activity [2]?
The Activity was 80%.

And the Activity [3]?
Its Activity is 98%.

And the Activity [4]?
Its Activity is 83%.

What about the Activity [5] of the same compound?
Its Activity is 91%.

What about the Activity [6] of the same compound?
The Activity was 89%.

And the Activity [7]?
Its Activity is 94%.

And the Activity [8]?
Its Activity is 95%.

What about the Activity [9] of the same compound?
Its Activity is 100%.

And the Activity [10]?
The Activity was 86%.

And the Activity [11]?
Its Activity is 94%.

And the Activity [12]?
The Activity was 94%.

And the Activity [13]?
The Activity was 86%.

What about the Activity [14] of the same compound?
The Activity was 100%.

What about the Activity [15] of the same compound?
The Activity was 79%.

And the Activity [16]?
The Activity was 96%.

What about the Activity [17] of the same compound?
Its Activity is 93%.

And the Activity [18]?
The Activity was 100%.

What about the Activity [19] of the same compound?
The Activity was 85%.

What about the Activity [20] of the same compound?
The Activity was 100%.

What about the Activity [21] of the same compound?
Its Activity is 78%.

What about the Activity [22] of the same compound?
Its Activity is 87%.

What about the Activity [23] of the same compound?
Its Activity is 100%.

And the Activity [24]?
The Activity was 73%.

What about the Activity [25] of the same compound?
Its Activity is 95%.

What about the Activity [26] of the same compound?
Its Activity is 98%.

What about the Activity [27] of the same compound?
The Activity was 91%.

And the Activity [28]?
The Activity was 84%.

And the Activity [29]?
The Activity was 92%.
